From patent US12291519B2, “2-hydroxycycloalkane-1-carbamoyl” (Idorsia Pharmaceuticals Ltd, priority 2019, dated 2025) come the findings set out here.

The target in one assay is human Gal-3 (hGal-3) (Homo sapiens (Human), UniProt P17931). Kind of assay: Competitive binding assay: biotinylated hGal-3 binding to microplate-adsorbed asialofetuin (ASF). The note with it: Activity on hGal-3; binding of biotinylated hGal-3 to ASF-coated plates; mean values. The protocol: (§1) Evaluation of Compound Inhibitory Activity (IC50)
The inhibitory activity of compounds is determined in competitive binding assays. […] Alternatively, and preferably, a human Gal-1 version in which all six cysteines are substituted by serines may be used.
Briefly, compounds are serially diluted in DMSO (working dilutions).
Plates are incubated for 3 hours at 4° C. then washed with cold assay buffer (3×50 uL), incubated for 1 hour with 25 μL/well of a streptavidin-peroxidases solution (diluted in assay buffer to 80 ng/mL) at 4° C., followed by further washing steps with assay buffer (3×50 uL). Finally, 25 μL/well of ABTS substrate is added.
(§2) The calculated IC50 values may fluctuate depending on the daily assay performance. Fluctuations of this kind are known to those skilled in the art. IC50 values from several measurements are given as mean values.

A further assay concerns the target human Gal-1 (hGal-1). Kind of assay: Competitive binding assay: biotinylated hGal-1 binding to microplate-adsorbed asialofetuin (ASF). The note with it: Activity on hGal-1; binding of biotinylated hGal-1 to ASF-coated plates; mean values. As to the method:
as §1
The inhibitory activity of compounds is determined in competitive binding assays. This spectrophotometric assay measures the binding of biotinylated human Gal-3 (hGal-3) or human Gal-1 (hGAl-1), respectively, to a microplate-adsorbed glycoprotein, asialofetuin (ASF) (Proc Natl Acad Sci USA. 2013 Mar. 26; 110(13):5052-7.). Alternatively, and preferably, a human Gal-1 version in which all six cysteines are substituted by serines may be used.
Briefly, compounds are serially diluted in DMSO (working dilutions). ASF-coated 384 well pates are supplemented with 22.8 μL/well of biotinylated hGal-3 or hGal-1 in assay buffer (i.e. 300-1000 ng/mL biotinylated hGal-3 or hGal-1) to which 1.2 μL of compound working dilutions are added and mixed.
Plates are incubated for 3 hours at 4° C. then washed with cold assay buffer (3×50 uL), incubated for 1 hour with 25 μL/well of a streptavidin-peroxidases solution (diluted in assay buffer to 80 ng/mL) at 4° C., followed by further washing steps with assay buffer (3×50 uL). Finally, 25 μL/well of ABTS substrate is added. OD (410 nm) is recorded after 30 to 45 min and IC50 values are calculated.
as §2

Chain of human Gal-3 (hGal-3) (P17931 whole entry): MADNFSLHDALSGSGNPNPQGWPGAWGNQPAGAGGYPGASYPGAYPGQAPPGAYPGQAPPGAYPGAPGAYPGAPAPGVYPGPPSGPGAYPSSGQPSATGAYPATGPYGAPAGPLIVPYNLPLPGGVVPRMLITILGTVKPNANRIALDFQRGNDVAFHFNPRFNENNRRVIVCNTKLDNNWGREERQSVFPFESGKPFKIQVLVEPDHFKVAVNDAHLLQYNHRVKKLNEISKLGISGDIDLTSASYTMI
Chain of human Gal-1 (hGal-1) (P09382 2-135 limits assumed): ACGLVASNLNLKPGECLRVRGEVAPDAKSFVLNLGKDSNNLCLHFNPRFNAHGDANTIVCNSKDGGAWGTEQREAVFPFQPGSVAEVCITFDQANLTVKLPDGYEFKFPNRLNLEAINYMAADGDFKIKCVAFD

In the case of `O=C([C@@H]1O[C@H](CO)[C@H](O)[C@H](n2cc(-c3cc(F)c(F)c(F)c3)nn2)[C@H]1O)N(Cc1ccncc1Cl)[C@H]1CCCC[C@@H]1O` [Example 8, (2R,3R,4S,5R,6R)-N-((3-chloropyridin-4-yl)methyl)-3,5-dihydroxy-N-((1S,2S)-2-hydroxycyclohexyl)-6-(hydroxymethyl)-4-(4-(3,4,5-trifluorophenyl)-1H-1,2,3-triazol-1-yl)tetrahydro-2H-pyran-2-carboxamide], the values for the IC50 on human Gal-3 (hGal-3) and on human Gal-1 (hGal-1) were 169 nM and 2.49 µM, respectively.
As for `O=C([C@@H]1O[C@H](CO)[C@H](O)[C@H](n2cc(-c3cc(F)c(F)c(F)c3)nn2)[C@H]1O)N(Cc1cccnc1C(F)(F)F)[C@H]1CCCC[C@@H]1O` [Example 9, (2R,3R,4S,5R,6R)-3,5-dihydroxy-N-((1S,2S)-2-hydroxycyclohexyl)-6-(hydroxymethyl)-N-((2-(trifluoromethyl)pyridin-3-yl)methyl)-4-(4-(3,4,5-trifluorophenyl)-1H-1,2,3-triazol-1-yl)tetrahydro-2H-pyran-2-carboxamide], the values for the IC50 on human Gal-3 (hGal-3) and on human Gal-1 (hGal-1) were 147 nM and 1.64 µM, respectively.
The matching figures for `O=C([C@@H]1O[C@H](CO)[C@H](O)[C@H](n2cc(-c3cc(F)c(F)c(F)c3)nn2)[C@H]1O)N(Cc1cnccc1C(F)(F)F)[C@H]1CCCC[C@@H]1O` [Example 10, (2R,3R,4S,5R,6R)-3,5-dihydroxy-N-((1S,2S)-2-hydroxycyclohexyl)-6-(hydroxymethyl)-N-((4-(trifluoromethyl)pyridin-3-yl)methyl)-4-(4-(3,4,5-trifluorophenyl)-1H-1,2,3-triazol-1-yl)tetrahydro-2H-pyran-2-carboxamide]: 122 nM and 1.69 µM.
On to `CO[C@@H]1[C@@H](n2cc(-c3cc(F)c(F)c(F)c3)nn2)[C@@H](O)[C@@H](CO)O[C@H]1C(=O)N(Cc1ccccc1C(F)(F)F)[C@H]1CCCC[C@@H]1O` [Example 11, (2R,3R,4S,5R,6R)-5-hydroxy-N-((1S,2S)-2-hydroxycyclohexyl)-6-(hydroxymethyl)-3-methoxy-N-(2-(trifluoromethyl)benzyl)-4-(4-(3,4,5-trifluorophenyl)-1H-1,2,3-triazol-1-yl)tetrahydro-2H-pyran-2-carboxamide], for which the values for the IC50 at human Gal-3 (hGal-3) and at human Gal-1 (hGal-1) were 55 nM and 0.497 µM, respectively.
For `CO[C@@H]1[C@@H](n2cc(-c3cc(F)c(F)c(F)c3)nn2)[C@@H](O)[C@@H](CO)O[C@H]1C(=O)N(Cc1ccccc1Cl)[C@H]1CCCC[C@@H]1O` [Example 12, (2R,3R,4S,5R,6R)-N-(2-chlorobenzyl)-5-hydroxy-N-((1S,2S)-2-hydroxycyclohexyl)-6-(hydroxymethyl)-3-methoxy-4-(4-(3,4,5-trifluorophenyl)-1H-1,2,3-triazol-1-yl)tetrahydro-2H-pyran-2-carboxamide], the IC50 at human Gal-3 (hGal-3) stood at 52 nM; on human Gal-1 (hGal-1) it was 0.497 µM.
As to `O=C([C@@H]1O[C@H](CO)[C@H](O)[C@H](n2cc(-c3cc(F)c(F)c(F)c3)nn2)[C@H]1O)N(Cc1ncccc1C(F)(F)F)[C@H]1CCCC[C@@H]1O` [Example 13, (2R,3R,4S,5R,6R)-3,5-dihydroxy-N-((1S,2S)-2-hydroxycyclohexyl)-6-(hydroxymethyl)-N-((3-(trifluoromethyl)pyridin-2-yl)methyl)-4-(4-(3,4,5-trifluorophenyl)-1H-1,2,3-triazol-1-yl)tetrahydro-2H-pyran-2-carboxamide], the IC50 at human Gal-3 (hGal-3) is 255 nM; on human Gal-1 (hGal-1), 7.25 µM.
Turning to `Nc1nc(Cl)c(CN(C(=O)[C@@H]2O[C@H](CO)[C@H](O)[C@H](n3cc(-c4cc(F)c(F)c(F)c4)nn3)[C@H]2O)[C@H]2CCCC[C@@H]2O)s1` [Example 15, (2R,3R,4S,5R,6R)-N-((2-amino-4-chlorothiazol-5-yl)methyl)-3,5-dihydroxy-N-((1S,2S)-2-hydroxycyclohexyl)-6-(hydroxymethyl)-4-(4-(3,4,5-trifluorophenyl)-1H-1,2,3-triazol-1-yl)tetrahydro-2H-pyran-2-carboxamide], the IC50 at human Gal-3 (hGal-3) was found to be 419 nM; on human Gal-1 (hGal-1), 3.18 µM.
The matching figures for `O=C([C@@H]1O[C@H](CO)[C@H](O)[C@H](n2cc(-c3cc(F)c(F)c(F)c3)nn2)[C@H]1O)N(Cc1cnoc1)[C@H]1CCCC[C@@H]1O` [Example 16, (2R,3R,4S,5R,6R)-3,5-dihydroxy-N-((1S,2S)-2-hydroxycyclohexyl)-6-(hydroxymethyl)-N-(isoxazol-4-ylmethyl)-4-(4-(3,4,5-trifluorophenyl)-1H-1,2,3-triazol-1-yl)tetrahydro-2H-pyran-2-carboxamide]: 476 nM and 28.3 µM.
The matching figures for `O=C([C@@H]1O[C@H](CO)[C@H](O)[C@H](n2cc(-c3cc(F)c(F)c(F)c3)nn2)[C@H]1O)N(Cc1ccc(Cl)o1)[C@H]1CCCC[C@@H]1O` [Example 17, (2R,3R,4S,5R,6R)-N-((5-chlorofuran-2-yl)methyl)-3,5-dihydroxy-N-((1S,2S)-2-hydroxycyclohexyl)-6-(hydroxymethyl)-4-(4-(3,4,5-trifluorophenyl)-1H-1,2,3-triazol-1-yl)tetrahydro-2H-pyran-2-carboxamide]: 281 nM and 23.1 µM.
The matching figures for `O=C([C@@H]1O[C@H](CO)[C@H](O)[C@H](n2cc(-c3cc(F)c(F)c(F)c3)nn2)[C@H]1O)N(Cc1cnsc1)[C@H]1CCCC[C@@H]1O` [Example 18, (2R,3R,4S,5R,6R)-3,5-dihydroxy-N-((1S,2S)-2-hydroxycyclohexyl)-6-(hydroxymethyl)-N-(isothiazol-4-ylmethyl)-4-(4-(3,4,5-trifluorophenyl)-1H-1,2,3-triazol-1-yl)tetrahydro-2H-pyran-2-carboxamide]: 179 nM and 11.6 µM.
Take `O=C([C@@H]1O[C@H](CO)[C@H](O)[C@H](n2cc(-c3cc(F)c(F)c(F)c3)nn2)[C@H]1O)N(Cc1csc(Br)n1)[C@H]1CCCC[C@@H]1O` [Example 20, (2R,3R,4S,5R,6R)-N-((2-bromothiazol-4-yl)methyl)-3,5-dihydroxy-N-((1S,2S)-2-hydroxycyclohexyl)-6-(hydroxymethyl)-4-(4-(3,4,5-trifluorophenyl)-1H-1,2,3-triazol-1-yl)tetrahydro-2H-pyran-2-carboxamide]: the IC50 at human Gal-3 (hGal-3) was found to be 352 nM; at human Gal-1 (hGal-1), 11.7 µM.
The matching figures for `O=C([C@@H]1O[C@H](CO)[C@H](O)[C@H](n2cc(-c3cc(F)c(F)c(F)c3)nn2)[C@H]1O)N(Cc1cnc(N2CCOCC2)s1)[C@H]1CCCC[C@@H]1O` [Example 21]: 112 nM and 10.7 µM.
On the same counts, the results for `O=C([C@@H]1O[C@H](CO)[C@H](O)[C@H](n2cc(-c3cc(F)c(F)c(F)c3)nn2)[C@H]1O)N(Cc1ccc(Cl)s1)[C@H]1CCCC[C@@H]1O` [Example 22, (2R,3R,4S,5R,6R)-N-((5-chlorothiophen-2-yl)methyl)-3,5-dihydroxy-N-((1S,2S)-2-hydroxycyclohexyl)-6-(hydroxymethyl)-4-(4-(3,4,5-trifluorophenyl)-1H-1,2,3-triazol-1-yl)tetrahydro-2H-pyran-2-carboxamide] are 167 nM and 86.6 µM.
On the same counts, the results for `O=C([C@@H]1O[C@H](CO)[C@H](O)[C@H](n2cc(-c3cc(F)c(F)c(F)c3)nn2)[C@H]1O)N(Cc1ncc(Cl)s1)[C@H]1CCCC[C@@H]1O` [Example 23, (2R,3R,4S,5R,6R)-N-((5-chlorothiazol-2-yl)methyl)-3,5-dihydroxy-N-((1S,2S)-2-hydroxycyclohexyl)-6-(hydroxymethyl)-4-(4-(3,4,5-trifluorophenyl)-1H-1,2,3-triazol-1-yl)tetrahydro-2H-pyran-2-carboxamide] are 403 nM and 22.7 µM.
As for `CO[C@@H]1[C@@H](n2cc(-c3cc(F)c(F)c(F)c3)nn2)[C@@H](O)[C@@H](CO)O[C@H]1C(=O)N(Cc1ncccc1C(F)(F)F)[C@H]1CCCC[C@@H]1O` [Example 25, (2R,3R,4S,5R,6R)-5-hydroxy-N-((1S,2S)-2-hydroxycyclohexyl)-6-(hydroxymethyl)-3-methoxy-N-((3-(trifluoromethyl)pyridin-2-yl)methyl)-4-(4-(3,4,5-trifluorophenyl)-1H-1,2,3-triazol-1-yl)tetrahydro-2H-pyran-2-carboxamide], the figures for the IC50 on human Gal-3 (hGal-3) and on human Gal-1 (hGal-1) were 280 nM and 4.92 µM, respectively.
`CO[C@@H]1[C@@H](n2cc(-c3cc(F)c(F)c(F)c3)nn2)[C@@H](O)[C@@H](CO)O[C@H]1C(=O)N(Cc1cccnc1C(F)(F)F)[C@H]1CCCC[C@@H]1O` [Example 26, (2R,3R,4S,5R,6R)-5-hydroxy-N-((1S,2S)-2-hydroxycyclohexyl)-6-(hydroxymethyl)-3-methoxy-N-((2-(trifluoromethyl)pyridin-3-yl)methyl)-4-(4-(3,4,5-trifluorophenyl)-1H-1,2,3-triazol-1-yl)tetrahydro-2H-pyran-2-carboxamide]: the IC50 at human Gal-3 (hGal-3) is 159 nM; on human Gal-1 (hGal-1), 0.338 µM.

As usually defined, the IC50 is the concentration that inhibits the measured activity by half. Low readings indicate inhibition by little substance, high ones a need for much substance.
